Target: T1, Erf2 (Saccharomyces cerevisiae, UniProt Q06551)
T1 sequence (Q06551 1-359): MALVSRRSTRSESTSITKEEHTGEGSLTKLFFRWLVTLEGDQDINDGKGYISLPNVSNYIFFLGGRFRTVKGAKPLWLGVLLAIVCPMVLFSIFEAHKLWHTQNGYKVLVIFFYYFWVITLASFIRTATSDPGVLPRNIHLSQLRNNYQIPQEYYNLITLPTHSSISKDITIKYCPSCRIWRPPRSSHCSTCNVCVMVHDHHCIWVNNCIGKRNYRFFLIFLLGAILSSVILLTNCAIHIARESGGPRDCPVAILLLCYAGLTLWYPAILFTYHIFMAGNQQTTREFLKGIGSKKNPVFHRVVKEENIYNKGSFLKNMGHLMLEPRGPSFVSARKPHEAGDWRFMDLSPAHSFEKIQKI
Assay: fluorescence coupled autopalmitoylation assay with purified complex
Type: biochemical

CCCCCCCCCCCCCCC(Br)C(=O)O (stereo not shown) [2-BP, 2-bromopalmitate]
IC50: ~100 µM

From PMC6445550 (Analytical biochemistry, 2014)
